Laboratory results published in patent US9266853B2, “Orally available viridiofungin derivative possessing anti-HCV activity” (Chugai Seiyaku Kabushiki Kaisha, priority 2012, dated 2016).

Tests used:
[1] = test system: firefly luciferase HCV replicon cells (Huh3-1); test: Replicon assay (firefly luciferase HCV replicon cells); assay type: cell-based, Hepatitis C virus; details: for IC50: Hepatitis C virus, 72 h, Huh3-1 replicon cells, 3 days culture, luciferase readout, read-out: Anti-replicon Activity (IC50); for IC50 of antireplicon activity converted to: unit converted assuming liver specific gravity 1 g=1 mL (FIGS. 1 to 3)
Description: As a reporter gene, for example, a gene into which a luciferase gene derived from a firefly is introduced can be used. Specifically, according to the method of Krieger et al. (N. Krieger et al., J. Virology: 75, 4614-24, 2001), a firefly luciferase gene is introduced, in a form fused with a neomycin-resistant gene, immediately downstream of an internal ribosome entry site (IRES) of the HCV gene. After synthesizing the RNA in vitro, it is introduced into suitable cells by, for example, electroporation to obtain firefly luciferase HCV replicon cells. These cells are seeded in wells of 96-well plates, to which a diluted test substance is added, and cultured for several days. The substrate is then added, and the luminescence is measured with a plate reader.
According to the method of Krieger et al. (N. Krieger et al., J. Virology: 75, 4614-24, 2001), a firefly luciferase gene was introduced, in a form fused with a neomycin-resistant gene, immediately downstream of an internal ribosome entry site (TRES) of the HCV gene. After synthesizing the RNA in vitro, it was introduced into Huh7 cells by electroporation and the cells were isolated as G418-resistant clones.
After culturing, the white plates were used for the replicon assay with Steady-Glo Luciferase Assay System (Promega cat. No. E2520). More specifically, 100 μL per well of the reagent was added, it was mixed 3-4 times by pipetting and allowed to stand for 5 minutes, and subsequently the luminescence was measured with a plate reader (EnVision™ 2103 Multilabel Reader).

[2] = Cytotoxicity test (WST-8); assay type: cell-based; details: human, firefly luciferase HCV replicon cells (Huh3-1); Huh3-1 replicon cells, 3 days culture, Cell counting kit-8; read-out: Cytotoxicity WST8 (IC50)
Experimental: The firefly luciferase HCV replicon cells (Huh3-1) were suspended in Dulbecco's MEM (Gibco cat. No. 10,569-010) containing 5% fetal bovine serum (Hyclone cat. No. SH30071.03), seeded at 4500 cells/90 μL/well in 96-well plates, and cultured overnight in 5% CO2 at 37° C. After 20 hours, 10 μL per well of compounds prepared at a concentration 10 times the final concentration were added, and they were further cultured for 3 days.
Two series of assay plates, one series of white plates and another series of clear plates, were prepared and used for the assay.
Clear plates were used for a cytotoxicity test (WST-8). Cytotoxicity was measured using Cell counting kit-8 (Dojindo cat. No. CK04). More specifically, 100 μL of Cell counting kit-8 diluted 10-fold from the stock solution with PBS (SIGMA cat. No. D8537) was added to each well in the aforementioned clear plates from which medium was removed and the plates were incubated at 37° C. for 30 to 60 minutes. Absorbance was measured at a wavelength of 460 nm and a control wavelength of 590 nm by a plate reader (EnVision™ 2103 Multilabel Reader). All values were expressed as differences from the background which was measured with neither cells nor drug and IC50 (50% inhibitory concentration) values of drugs were calculated based on the value when no drug was added defined as 0% inhibition.

CYP3A4 = CYP3A4 (Homo sapiens (Human), UniProt P08684); test: biochemical; assay type: in vitro ADME; details: for IC50: human liver microsomes, midazolam 0.5 μmol/L; for CYP Inhibition Time Dependent (TDI) (untreated/Pre-incubation), CYP3A4: microsomes
Sequence of CYP3A4 (P08684 whole entry): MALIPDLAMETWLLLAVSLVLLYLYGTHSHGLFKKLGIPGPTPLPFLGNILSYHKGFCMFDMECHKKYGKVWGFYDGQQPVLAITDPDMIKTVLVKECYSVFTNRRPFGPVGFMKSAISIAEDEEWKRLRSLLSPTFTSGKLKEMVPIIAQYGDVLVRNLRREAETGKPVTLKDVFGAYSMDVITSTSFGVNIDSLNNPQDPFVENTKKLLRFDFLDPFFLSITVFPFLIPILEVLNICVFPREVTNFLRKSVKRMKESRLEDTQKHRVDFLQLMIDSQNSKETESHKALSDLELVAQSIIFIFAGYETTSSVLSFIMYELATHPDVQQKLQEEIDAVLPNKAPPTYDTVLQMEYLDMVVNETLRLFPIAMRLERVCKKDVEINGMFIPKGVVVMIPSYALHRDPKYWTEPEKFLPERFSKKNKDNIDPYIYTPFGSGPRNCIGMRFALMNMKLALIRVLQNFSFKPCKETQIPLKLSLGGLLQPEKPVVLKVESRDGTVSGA
Experimental: (§1) <Incubation Mixture> • 100 mM phosphate buffer (pH 7.4) • 0.1 mg/mL of pooled human liver microsomes (male and female mixture, a pool of 50 donors) <NADPH Aqueous Solution> • 10 mM NADPH (final concentration 1 mM NADPH) <Measurement of Metabolite>
Warfarin was used as internal standard (IS).
To a 96 deep well plate was added 2.5 μL, of the test substance solution (×200 concentration), 442.5 μL of Incubation Mixture, and 5 μL of the substrate solution, and the solution was mixed and warmed to 37° C. for 5 minutes. To this incubation solution 50 μL of 10 mM NADPH was added to start the reaction, and incubated at 37° C. for 5 minutes. After the incubation, 100 μL of the Incubation Mixture was removed, added to 150 μL of isopropanol containing IS and mixed. […] The filtrate was used for LC-MS/MS analysis.
To a 96 deep well plate was added 2.5 μL of the test substance solution (×200 concentration), and 442.5 μL of Incubation Mixture, and the solution was mixed and warmed to 37° C. for 5 minutes. To this incubation solution 50 μL of 10 mM NADPH was added and preincubated at 37° C. for 30 minutes. […] After the reaction, 100 μL of the Incubation Mixture was removed, added to 150 μL of isopropanol containing IS and mixed. […] The filtrate was used for LC-MS/MS analysis.
(§2) Based on the metabolite production of the DMSO control group defined as 100, percent inhibitions of the metabolite production in the test substance group were determined, and inhibition curves were plotted at 5 concentrations. The test substance concentration showing 50% inhibition (IC50) was determined from the fitting curve of the inhibition curve.

CYP2C9 = CYP2C9 (Homo sapiens (Human), UniProt P11712); test: biochemical; details: for IC50: human liver microsomes, diclofenac 0.2 μmol/L; for TDI Ratio, CYP2C9: microsomes
Sequence of CYP2C9 (P11712 whole entry): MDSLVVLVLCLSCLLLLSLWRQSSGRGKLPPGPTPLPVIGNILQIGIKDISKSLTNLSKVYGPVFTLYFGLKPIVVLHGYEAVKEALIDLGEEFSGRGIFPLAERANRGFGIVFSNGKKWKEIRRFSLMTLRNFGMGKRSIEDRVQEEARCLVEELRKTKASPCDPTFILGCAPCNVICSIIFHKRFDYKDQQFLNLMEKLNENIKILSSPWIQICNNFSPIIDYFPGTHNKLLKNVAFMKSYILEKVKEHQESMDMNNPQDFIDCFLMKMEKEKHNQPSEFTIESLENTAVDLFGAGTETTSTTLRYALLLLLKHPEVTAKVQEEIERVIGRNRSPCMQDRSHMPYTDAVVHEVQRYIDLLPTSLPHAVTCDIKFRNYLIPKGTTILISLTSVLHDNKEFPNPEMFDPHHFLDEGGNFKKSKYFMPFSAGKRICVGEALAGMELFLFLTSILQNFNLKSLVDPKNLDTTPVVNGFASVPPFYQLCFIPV
Experimental: Tests were carried out according to the following experiment method.
as §1
After incubation, the concentrations of the produced metabolites were measured using LC-MS/MS (API4000 or 5500QTRAP). Warfarin was used as internal standard (IS). The concentration was calculated using a standard curve created using a metabolite standard solution.
To a 96 deep well plate was added 2.5 μL, of the test substance solution (×200 concentration), 442.5 μL of Incubation Mixture, and 5 μL of the substrate solution, and the solution was mixed and warmed to 37° C. for 5 minutes. To this incubation solution 50 μL of 10 mM NADPH was added to start the reaction, and incubated at 37° C. for 5 minutes. After the incubation, 100 μL of the Incubation Mixture was removed, added to 150 μL of isopropanol containing IS and mixed. This mixture was transferred onto a multi-screen filter, centrifuged at 500×g at 4° C. for 10 minutes. The filtrate was used for LC-MS/MS analysis.
To a 96 deep well plate was added 2.5 μL of the test substance solution (×200 concentration), and 442.5 μL of Incubation Mixture, and the solution was mixed and warmed to 37° C. for 5 minutes. To this incubation solution 50 μL of 10 mM NADPH was added and preincubated at 37° C. for 30 minutes. After the preincubation, 5 μL of the substrate solution was added and the solution was mixed and further incubated at 37° C. for 5 minutes for the reaction. After the reaction, 100 μL of the Incubation Mixture was removed, added to 150 μL of isopropanol containing IS and mixed. This mixture was transferred onto a multi-screen filter, centrifuged at 500×g at 4° C. for 10 minutes. The filtrate was used for LC-MS/MS analysis.
as §2
Time dependent inhibition (TDI) was calculated as a ratio of dividing IC50 of the sample without preincubation treatment by the IC50 value measured after the preincubation treatment.

[3] = Rat PK test (liver concentrations of active metabolites after oral prodrug); assay type: in vivo, Wistar rat
Experimental: The test was carried out according to the following protocol. • Animal: […] (Method of Analysis) Using LC-MS/MS (API 4000), standard curves for standard compounds were prepared, and the concentrations of the active metabolites No. 5514403 and No. 5526064 at the data points were calculated.

[4] = CYP3A4 (IC50 μM) Pre-incubation, 30 min preincubation with NADPH
[5] = CYP3A4 (IC50 μM) untreated, without preincubation
[6] = CYP2C9 (IC50 μM) Pre-incubation, 30 min preincubation with NADPH
[7] = CYP2C9 (IC50 μM) untreated, without preincubation
[8] = rat liver, prodrug p.o. 30 mg/kg once a day, 7 days
[9] = rat liver, 24 hours after dosing, prodrug p.o. 30 mg/kg once a day, 7 days

## CCCCCCCC(F)(F)CCCCCC/C=C/[C@H](C(=O)N[C@@H](Cc1ccc(OCCCC)cc1)C(=O)O)[C@@](O)(CCOC)C(=O)O [No. 5526064, (E)-(2S,3S)-3-[(S)-2-(4-butoxy-phenyl)-1-carboxy-ethylcarbamoyl]-12,12-difluoro-2-hydroxy-2-(2-methoxy-ethyl)-nonadec-4-enoic acid]
[1]
  IC50: 0.00215 µM
  IC50 of antireplicon activity converted to: 1.44 ng/g
[2]
  IC50 at 3 days: > 1 µM
CYP3A4; [4]
  IC50: 11.8 µM
CYP3A4; [5]
  IC50: 16.2 µM
CYP3A4
  CYP Inhibition Time Dependent (TDI) (untreated/Pre-incubation), CYP3A4: 1.37
CYP2C9; [6]
  IC50: 24.4 µM
CYP2C9; [7]
  IC50: 12.5 µM
CYP2C9
  TDI Ratio, CYP2C9: 0.51

## CCCCCCCC(F)(F)CCCCCC/C=C/[C@H](C(=O)N[C@@H](Cc1ccc(OCCCC)cc1)C(=O)OC)[C@@](O)(CCOC)C(=O)OC [No. 6809532, Methyl (E)-(2S,3S)-3-[(S)-2-(4-butoxy-phenyl)-1-methoxycarbonyl-ethylcarbamoyl]-12,12-difluoro-2-hydroxy-2-(2-methoxy-ethyl)-nonadec-4-enoate, reference compound]
[3]; [8]
  presence of the active compound No. 5514403 in the liver: hardly detected

## CCCCCCCC(F)(F)CCCCCC/C=C/[C@H](C(=O)N[C@@H](Cc1ccc(OCCCC)cc1)C(=O)OC)[C@@](O)(CCOC)C(=O)OCc1oc(=O)oc1C [No. 6808755, (5-methyl-2-oxo-[1,3]dioxol-4-yl)methyl (E)-(2S,3S)-3-[(S)-2-(4-butoxy-phenyl)-1-methoxycarbonyl-ethylcarbamoyl]-12,12-difluoro-2-hydroxy-2-(2-methoxy-ethyl)-nonadec-4-enoate]
[3]; [9]
  concentration of active compound No. 5514403 in the liver: ≥ 100 ng/g
  concentration of active metabolite No. 5526064 in the liver: ≥ 100 ng/g
[3]; rat, p.o., in comparison with No. 6809532 and No. 6811559
  exposure of the liver to the active drugs: significantly higher exposure of the liver to the active drugs

## CCCCCCCC(F)(F)CCCCCC/C=C/[C@H](C(=O)N[C@@H](Cc1ccc(OCCCC)cc1)C(=O)OC)[C@@](O)(CCOC)C(=O)O [No. 5514403, (E)-(2S,3S)-3-[(S)-2-(4-butoxy-phenyl)-1-methoxycarbonyl-ethylcarbamoyl]-12,12-difluoro-2-hydroxy-2-(2-methoxy-ethyl)-nonadec-4-enoic acid]
[1]
  IC50: 0.0006 µM
  IC50 of antireplicon activity converted to: 0.48 ng/g
[2]
  IC50 at 3 days: > 1 µM
CYP3A4; [4]
  IC50: 11.9 µM
CYP3A4; [5]
  IC50: 23.8 µM
CYP3A4
  CYP Inhibition Time Dependent (TDI) (untreated/Pre-incubation), CYP3A4: 1.98
CYP2C9; [6]
  IC50: 19.6 µM
CYP2C9; [7]
  IC50: 7.7 µM
CYP2C9
  TDI Ratio, CYP2C9: 0.39

## CCCCCCCC(F)(F)CCCCCC/C=C/[C@H](C(=O)N[C@@H](Cc1ccc(OCCCC)cc1)C(=O)OC)[C@@](O)(CCOC)C(=O)OCC(=O)OC [No. 6811559, Methoxycarbonylmethyl (E)-(2S,3S)-3-[(S)-2-(4-butoxy-phenyl)-1-methoxycarbonyl-ethylcarbamoyl]-12,12-difluoro-2-hydroxy-2-(2-methoxy-ethyl)-nonadec-4-enoate, reference compound]
[3]; [8]
  presence of the active compound No. 5514403 in the liver: hardly detected
